Literature values, collected in paper PMC7347157 (Chemical communications (Cambridge, England), 2019).

Conditions: unlabeled dienophile

log P	Molecule
1.11	OC1CC/C=C/CCC1 (stereo not drawn) [5-hydroxy-trans-cyclooctene]
0.51	trans-5-oxocene [compound 4]
